# From patent US20210322469A1, “ZINC AND COPPER FOR THE PROPHYLAXIS AND TREATMENT OF COVID-19” (Regents of the University of Minnesota, priority 2020, published 2021)
# Where two headings read alike, the source gives them in different places.
# Tests used:
# [1] = test system: SARS-CoV-2; assay type: in vivo; settings: patients receiving zinc prophylactically for AMD or for treatment of AMD
# [2] = target: angiotensin converting enzyme 2 (ACE2) (Homo sapiens, UniProt Q9BYF1); settings: Speth et al. 2014, cited from earlier work
# angiotensin converting enzyme 2 (ACE2), sequence (Q9BYF1 18-805): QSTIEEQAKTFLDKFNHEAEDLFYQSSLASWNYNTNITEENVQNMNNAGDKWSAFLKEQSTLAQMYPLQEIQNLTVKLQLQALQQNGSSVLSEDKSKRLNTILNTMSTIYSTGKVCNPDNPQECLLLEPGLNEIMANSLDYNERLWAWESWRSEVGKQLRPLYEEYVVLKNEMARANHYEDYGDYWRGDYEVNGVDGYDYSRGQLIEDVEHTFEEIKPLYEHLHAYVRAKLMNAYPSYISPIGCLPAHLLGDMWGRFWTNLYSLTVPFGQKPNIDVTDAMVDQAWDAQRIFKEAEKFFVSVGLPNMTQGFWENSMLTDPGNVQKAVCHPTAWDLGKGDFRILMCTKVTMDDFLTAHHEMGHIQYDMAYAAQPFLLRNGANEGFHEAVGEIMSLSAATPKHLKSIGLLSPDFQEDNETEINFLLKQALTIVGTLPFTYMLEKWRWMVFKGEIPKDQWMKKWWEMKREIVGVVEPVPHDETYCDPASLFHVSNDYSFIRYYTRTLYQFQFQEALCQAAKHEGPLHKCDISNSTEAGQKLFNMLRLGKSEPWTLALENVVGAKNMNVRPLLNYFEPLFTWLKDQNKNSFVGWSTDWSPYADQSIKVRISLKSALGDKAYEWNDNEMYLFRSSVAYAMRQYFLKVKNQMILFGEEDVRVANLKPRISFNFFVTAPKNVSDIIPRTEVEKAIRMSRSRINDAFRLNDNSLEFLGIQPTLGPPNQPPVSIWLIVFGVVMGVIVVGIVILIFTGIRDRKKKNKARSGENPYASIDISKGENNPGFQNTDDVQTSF
substance,measurement,setting,value
zinc,COVID-19-related deaths,[1],no COVID-19-related deaths
same,inhibition of ACE2 function,[2],inhibitor of ACE2 function
same,inhibition of ACE2 function,[2]; listed as Zinc,can inhibit the function of ACE2
